We go through four compounds from patent publication US7083918B2, “Bacterial small-molecule three-hybrid system” (The Trustees of Columbia University in the City of New York, priority 2002, dated 2006).

Molecules are shown by their SMILES.

Data set [1] deals with tolC^− strains. The experiment in a line: growth and viability of tolC- strains on antibiotic. It is filed as cell-based, E. coli. The method, then: Electrocompetent cells of strain V674E were made by standard methods (35); however, the transformation efficiency of this strain is low (10^6–10^7) due to the tolC^− mutation. Using standard methods, both the pACλcI32 and the pBRαLN plasmids or appropriate derivatives were transformed into the strain. Transformants were grown on LB with 100 μg/mL ampicillin and 6 μg/mL chloramphenicol. […] In addition MacConkey plates can't be used because MacConkey media is toxic to strains bearing a tolC^− mutation.

Data set [2] relates to λcI-FKBP12 and αNTD-DHFR fusion proteins (lacZ reporter gene in E. coli strain V674E). In words: liquid lacZ (ONPG) β-galactosidase assay, bacterial three-hybrid system. The data set is classed as cell-based. As to conditions: for effect of unlinked ligand on the levels of transcription in the three-hybrid system: control without Mtx-SLF (FIG. 4).
Text: The levels of small-molecule induced transcriptional activation were quantified using liquid lacZ assays. The strains here correspond exactly to those in FIG. 2 and are used in liquid ONPG assays where the levels of transcriptional activation can be quantitated based on the amount of reporter protein, b-galactosidase, which is produced. The strains are V674E bearing plasmids encoding λcI and αNTD fusion proteins: 1, λcI-Gal4, αNTD-Gal11^P; 2, λcI, αNTD; 3, λcI-FKBP12, αNTD; 4, λcI-FKBP12, αNTD-DHFR; 5, λcI, αNTD-DHFR. The strains were assayed in triplicate from three transformants and standard deviations are shown. The strains are grown in LB with 0.5 mM IPTG, 100 μg/mL ampicillin, 6 μg/mL chloramphenicol, and small molecules at the indicated concentration. […] The last two small-molecule concentrations are competition assays in which an excess of one of the ligands for the receptor proteins was used to compete out the positive signal due to the three-hybrid system.
The strains are V674E expressing the following λcI and αNTD fusion proteins: (♦), λcI-Gal4, αNTD-Gal11^P (a direct protein-protein interaction); (▬), λcI-FKBP12, αNTD (a negative control); and (▴), λcI-FKBP12, αNTD-DHFR (the three-hybrid system). […] The standard deviation for each data point is also shown.
For the liquid assays, the strains were incubated overnight in LB liquid media containing 100 μg/mL ampicillin, 6 μg/mL chloramphenicol, and 0.5 mM IPTG overnight. These cultures were used to innoculate 1000 fold into LB liquid media containing 100 μg/mL ampicillin, 6 μg/mL chloramphenicol, 0.5 mM IPTG, and small molecule (per concentration indicated in each experiment) and grown to a final OD600 of 0.4-0.6 in a 37° C. shaker which took about 5 hours. No tPEG is used in the liquid assays in order to get a true quantization of the transcription. Then, the protocol from Miller was followed exactly using 0.1 mL cell lysate for the assay (35).
The test system of data set [3] is E. coli cells. The experiment in a line: toxicity to E. coli cells in three-hybrid experiments. The conditions noted are these: at the low concentrations of Mtx-SLF required for the three-hybrid experiments; tolC^− strain. It is filed as cell-based. As for the experimental part: The next step was the construction of the E. coli strain expressing the λcI-FKBP12 and (NTD-DHFR fusion proteins and containing the lacZ reporter construct. Plasmids encoding the λcI-FKBP12 and αNTD-DHFR chimeras were prepared from vectors pACλcI32 and pBRαLN using standard molecular biology techniques (8). The same synthetic lacZ reporter, placOR2-62, as initially reported by the Hochschild lab was used. The reporter placOR2-62 is maintained in one copy in the chromosome as a prophage and encodes the lacZ gene 62 bp downstream from the λcI operator (FIG. 1) (16). Based on previous results from Kopytek and Hu showing that tolC^− and thyA^− mutations improved the viability and tolerance of E. coli to Mtx-based molecules, we expected export as well as toxicity of Mtx-SLF to be problematic in E. coli (32). Thus, we modified the original Hochschild strain KS1 to be tolC^− in order to decrease active export of our small molecule. […] We introduced the tolC^− mutation into KS1 via a P1vir transduction from strain SK037 (32). We call this test strain V674E. Transformation of the plasmids bearing the various λcI and αNTD fusion proteins into V674E yielded the final experimental strains.
These X-gal plate results were confirmed using more quantitative liquid β-galactosidase assays. The liquid assays were carried out essentially as originally described by Miller (35). […]

For data set [4], the target named is FKBP12 (Homo sapiens, UniProt P62942). The conditions noted are these: cited from earlier work.
FKBP12, sequence (P62942 whole entry): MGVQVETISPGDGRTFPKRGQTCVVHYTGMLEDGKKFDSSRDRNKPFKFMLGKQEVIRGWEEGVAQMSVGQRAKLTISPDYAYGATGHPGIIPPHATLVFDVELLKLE

As for `O=C(N[C@H](CO)[C@H](O)c1ccc([N+](=O)[O-])cc1)C(Cl)Cl` [Chloramphenicol], the “levels that significantly impair growth and viability of tolC^− strains” value in data set [1] is “above 8 μg/mL”. In the case of `CN(Cc1cnc2nc(N)nc(N)c2n1)c1ccc(C(=O)N[C@@H](CCC(=O)O)C(=O)O)cc1` [Mtx, methotrexate], the “effect of unlinked ligand on the levels of transcription in the three-hybrid system” value in data set [2] was “Neither Mtx, SLF, nor a combination of the two affects the levels of transcription”. For the same compound, in data set [3], the “toxicity in E. coli (need for thyA^− mutation)” value is listed as “not sufficiently toxic”. Take `CCC(C)(C)C(=O)C(=O)N1CCCCC1C(=O)OC(CCc1ccc(OC)c(OC)c1)c1cccc(OCC(=O)O)c1` (stereo not drawn) [SLF]: the “effect of unlinked ligand on the levels of transcription in the three-hybrid system” value in data set [2] is given as “Neither Mtx, SLF, nor a combination of the two affects the levels of transcription”. For the same compound, the “affinity for FKBP12” value in data set [4] is “nanomolar affinity”.

`CCC(C)(C)C(=O)C(=O)N1CCCCC1C(=O)OC(CCc1ccc(OC)c(OC)c1)c1cccc(OCC(=O)OC(C)(C)C)c1` (stereo not drawn) [tert-butyl ester of SLF]: the “levels of transcription with competitor relative to 1 μM Mtx-SLF alone” value in data set [2] (competition: 1 μM Mtx-SLF plus 10-fold excess of competitor) was “about half”.
